US20250002526A1, “PHARMACEUTICAL COMPOSITION HAVING ANTI-CANCER IMMUNOSTIMULATING EFFECT AND/OR IMMUNE CHECKPOINT INHIBITION POTENTIATING EFFECT” (KYUSHU UNIVERSITY, NATIONAL UNIVERSITY CORPORATION, priority 2021, published 2025)
“Also recorded” adds a separate entry of the source.

Key:
E0771-SULT cells = test: Oral cholenoic acid in mice with transplanted E0771-SULT cells: CS production and CD8+ T cell infiltration in tumor; type: in vivo, mouse
E0771-SULT-PD-L1 cells = test: In vivo tumor growth of E0771-SULT-PD-L1 cells with anti-PD-L1 antibody treatment; parameters: species or system mouse; details: oral cholenoic acid combined with anti-PD-L1 antibody, days 9, 12 and 15 after transplantation
Experimental: As described later for each experiment, 200 μl of an anti-mouse PD-L1 antibody (10F.9G2, 0.5 mg/ml, BioXCell) or a control of the matched isotype (LTF-2, 0.5 mg/ml, BioXCell) was intraperitoneally injected into tumor-bearing mice (see experimental results (3)).
Cholenoic acid was suspended in 0.5% (w/v) methylcellulose 400 solution (FUJIFILM Wako Pure Chemical Corporation) at a proportion of 50 mg/ml, and a 200-μl portion (10 mg) of the suspension was orally administered to mice (see experimental results (6)). To examine the effect on the tumor infiltration of OTII cells or OTI T cells, 5 mg of cholenoic acid was orally administered three times at intervals of 6 hours in 2 days before the assay. […]
The growth of tumors was monitored by measuring the vertical diameters of each tumor with a caliper twice a week and calculating the tumor volumes from the following expression.

Which results are given for `C[C@H](CCC(=O)O)[C@H]1CC[C@H]2[C@@H]3CC=C4C[C@@H](O)CC[C@]4(C)[C@H]3CC[C@]12C` [Compound 1, (R)-4-((3S,8S,9S,10R,13R,14S,17R)-3-hydroxy-10,13-dimethyl-2,3,4,7,8,9,10,11,12,13,14,15,16,17-tetradecahydro-1H-cyclopenta[a]phenanthren-17-yl)pentanoic acid]?
CS production in tumor (E0771-SULT cells; oral administration on days 5, 6 and 7, analysed day 8, listed as cholenoic acid): local reduction in CS production; also recorded: locally inhibited; CD8+ T cell infiltration in tumor (E0771-SULT cells; oral administration on days 5, 6 and 7, low CS region on day 8): CD8^+ T cell infiltration was induced; growth of E0771-SULT-PD-L1 cells (tumor volume) (E0771-SULT-PD-L1 cells): renders E0771-SULT-PD-L1 cells susceptible to immune checkpoint inhibition; also recorded: causes the growth of E0771-SULT-PD-L1 cells (tumor volume) to be suppressed
